Assay results from ChEMBL document CHEMBL3885881, “DrugMatrix”.

Species on record: Rattus norvegicus
Assay: DrugMatrix - Regimen: Daily Repeat
Type: toxicity, organism-based, Sprague-Dawley
Set-up: regimen Daily Repeat, gender Male, age 6-8 weeks
Conditions: in vivo, ip, route intraperitoneal, vehicle 100 % SALINE; for URIC ACID / ALANINE AMINOTRANSFERASE / ALBUMIN / ALKALINE PHOSPHATASE / ASPARTATE AMINOTRANSFERASE / BLOOD UREA NITROGEN / CHOLESTEROL / CREATINE PHOSPHOKINASE / CREATININE / GLUCOSE / LACTATE DEHYDROGENASE / LIPASE / PHOSPHORUS / POTASSIUM / SODIUM / TOTAL BILIRUBIN / TOTAL PROTEIN: tissue Plasma; for ABSOLUTE BASOPHIL / ABSOLUTE EOSINOPHIL / ABSOLUTE LYMPHOCYTE / ABSOLUTE MONOCYTE / ABSOLUTE SEGMENTED NEUTROPHIL / BASOPHIL / EOSINOPHIL / ERYTHROCYTE COUNT / HEMATOCRIT / HEMOGLOBIN / LEUKOCYTE COUNT / LYMPHOCYTE / MEAN CORPUSCULAR HEMOGLOBIN / MEAN CORPUSCULAR HEMOGLOBIN CONCENTRATION / MEAN CORPUSCULAR VOLUME / MONOCYTE / NEUTROPHIL / PLATELET COUNT: tissue Blood
[1] = 0 mg/kg, […], dose level Control, time 28 day
[2] = 2 mg/kg, 120 h, dose level High, time 5 day
[3] = 2 mg/kg, […], dose level High, time 14 day
[4] = 2 mg/kg, […], dose level High, time 28 day

## CADMIUM DICHLORIDE
0 mg/kg, […], dose level Control, time 14 day
  URIC ACID: 0.94 mg/dL
[1]
  ALANINE AMINOTRANSFERASE: 30 u/L
  ALBUMIN: 3.71 G/DL
  ALKALINE PHOSPHATASE: 186.8 u/L
  ASPARTATE AMINOTRANSFERASE: 78.2 u/L
  BLOOD UREA NITROGEN: 14.2 mg/dL
  CHOLESTEROL: 44.9 mg/dL
  CREATINE PHOSPHOKINASE: 334.3 u/L
  CREATININE: 0.6 mg/dL
  GLUCOSE: 147.2 mg/dL
  LACTATE DEHYDROGENASE: 123.1 u/L
  LIPASE: 9.6 u/L
  PHOSPHORUS: 10.01 mg/dL
  POTASSIUM: 6.57 MEQ/L
  SODIUM: 149.5 MEQ/L
  TOTAL BILIRUBIN: 0.21 mg/dL
  TOTAL PROTEIN: 6.66 G/DL
  URIC ACID: 1.26 mg/dL
[2]
  ABSOLUTE BASOPHIL: 82 cells/µL
  ABSOLUTE EOSINOPHIL: 170 cells/µL
  ABSOLUTE LYMPHOCYTE: 6790 cells/µL
  ABSOLUTE MONOCYTE: 750 cells/µL
  ABSOLUTE SEGMENTED NEUTROPHIL: 6.49 CELLS/uL
  BASOPHIL: 0.52%
  EOSINOPHIL: 1.36%
  ERYTHROCYTE COUNT: 7.45 x10E6/uL
  HEMATOCRIT: 43.86%
  HEMOGLOBIN: 14.46 G/DL
  LEUKOCYTE COUNT: 14.43 x10E3/uL
  LYMPHOCYTE: 52.2%
  MEAN CORPUSCULAR HEMOGLOBIN: 19.4 pg
  MEAN CORPUSCULAR HEMOGLOBIN CONCENTRATION: 32.92 G/DL
  MEAN CORPUSCULAR VOLUME: 59.02 fL
  MONOCYTE: 5.12%
  NEUTROPHIL: 39.98%
  PLATELET COUNT: 1991.4 x10E3/uL
  ALANINE AMINOTRANSFERASE: 32 u/L
  ALBUMIN: 3.14 G/DL
  ALKALINE PHOSPHATASE: 100.2 u/L
  ASPARTATE AMINOTRANSFERASE: 134 u/L
  BLOOD UREA NITROGEN: 16.8 mg/dL
  CHOLESTEROL: 54.8 mg/dL
  CREATINE PHOSPHOKINASE: 243.4 u/L
  CREATININE: 0.44 mg/dL
  GLUCOSE: 120.4 mg/dL
  LACTATE DEHYDROGENASE: 161.2 u/L
  LIPASE: 76.6 u/L
  PHOSPHORUS: 11.2 mg/dL
  POTASSIUM: 6.38 MEQ/L
  SODIUM: 146 MEQ/L
  TOTAL BILIRUBIN: 0.2 mg/dL
  TOTAL PROTEIN: 5.32 G/DL
  URIC ACID: 1.7 mg/dL
[3]
  ABSOLUTE BASOPHIL: 180 cells/µL
  ABSOLUTE EOSINOPHIL: 86 cells/µL
  ABSOLUTE LYMPHOCYTE: 8270 cells/µL
  ABSOLUTE MONOCYTE: 890 cells/µL
  ABSOLUTE SEGMENTED NEUTROPHIL: 6.16 CELLS/uL
  BASOPHIL: 1.22%
  EOSINOPHIL: 0.6%
  ERYTHROCYTE COUNT: 7.03 x10E6/uL
  HEMATOCRIT: 40.98%
  HEMOGLOBIN: 13.48 G/DL
  LEUKOCYTE COUNT: 15.72 x10E3/uL
  LYMPHOCYTE: 52.14%
  MEAN CORPUSCULAR HEMOGLOBIN: 19.2 pg
  MEAN CORPUSCULAR HEMOGLOBIN CONCENTRATION: 32.92 G/DL
  MEAN CORPUSCULAR VOLUME: 58.34 fL
  MONOCYTE: 5.4%
  NEUTROPHIL: 39.7%
  PLATELET COUNT: 2275.2 x10E3/uL
[4]
  ABSOLUTE BASOPHIL: 270 cells/µL
  ABSOLUTE EOSINOPHIL: 150 cells/µL
  ABSOLUTE LYMPHOCYTE: 12500 cells/µL
  ABSOLUTE MONOCYTE: 620 cells/µL
  ABSOLUTE SEGMENTED NEUTROPHIL: 4220 cells/µL
  BASOPHIL: 1.34%
  EOSINOPHIL: 0.93%
  ERYTHROCYTE COUNT: 7.42 x10E6/uL
  HEMATOCRIT: 44.63%
  LEUKOCYTE COUNT: 17.89 x10E3/uL
  LYMPHOCYTE: 68.87%
  MEAN CORPUSCULAR HEMOGLOBIN: 18.83 pg
  MEAN CORPUSCULAR HEMOGLOBIN CONCENTRATION: 31.21 G/DL
  MONOCYTE: 3.41%
